Experimental findings from patent US20230158031A1, “Treatment of Acute Respiratory Distress Syndrome and Other Disorders Involving Cytokine Storm Using BTK Inhibitors” (Principia Biopharma Inc., priority 2020, published 2023) are described below.

The subject of experiment [1] is neutrophils. As to the kind of experiment: Neutrophil intraluminal crawling following fMLP-mediated arrest in vivo (intravital microscopy, cremaster). The following applies: compared to vehicle control; cremaster superfused with fMLP (10 μM), time-lapse microscopy 2 h; FIG. 9A. The text has this:
Following post-adhesion strengthening, neutrophils undertake Mac-1 (an integrin) dependent migratory activity on the vascular side of the vessel wall prior to transmigration ([…] and Zarbock 2013). Previous studies have highlighted the importance of this step for successful neutrophil recruitment (Phillipson et al. 2006). To investigate the effects of Btk inhibition on this step of the leukocyte recruitment cascade, intraluminal crawling following fMLP (N-formylmethionine-leucyl-phenylalanine)-mediated arrest in vivo was investigated. Using intravital microscopy, intravascular crawling of neutrophils was examined as described previously (Phillipson et al. 2006). Briefly, anti-Gr-1 antibody (clone RB6-8C5), labelled with Alexa Fluor 488 (Molecular Probes, Eugene, Oreg., USA), was injected via the cannulated carotid artery prior to the experiment. Following preparation and exteriorization, the cremaster was superfused with fMLP (10 μM) and time-lapse microscopy was performed for 2 h. The number of adherent cells was determined.

Experiment [2] concerns neutrophils. As to the kind of experiment: Neutrophil recruitment to the necrotic zone following sterile liver injury (heat injury). The class given is in vivo. The note with it: 4 h after heat injury; spinning disc time-lapse microscopy; FIG. 9B.
The test system of experiment [3] is anti-GBM glomerulonephritis. The experiment can be described thus: Mouse anti-GBM glomerulonephritis model. The following applies: for kidney pathology: kidney histology after Study Day 10, relative to Dex 1 mg/kg QD. The class given is in vivo. Here is the method: The mouse anti-GBM glomerulonephritis model involves antibody mediated autoimmunity, and the model is histologically and mechanistically similar to glomerulonephritis in humans. The model also includes kidney deposition of immune complexes (IC), targeting glomerular basement membrane. The efficacy of Compound (IB) (also referred to as PRN1008) relative to the corticosteroid dexamethasone (Dex) was tested in a mouse anti-GBM glomerulonephritis model according to the design shown in FIG. 1. Briefly, to induce glomerulonephritis, mice were pre-sensitized with sheep IgG/FCA (Study Day −5). Five days later (Study Day 0), the mice received anti-GBM sheep IgG. Treatment with vehicle, Compound (IB), or Dex with various dosage regimes (Compound (IB): 10 mg/kg, 20 mg/kg, or 40 mg/kg QD or 20 mg/kg BID; Dex: 1 mg/kg QD; Vehicle: QD or BID) began at Study Day −1, one day prior to injection with anti-GBM sheep IgG. Treatment continued until Study Day 10, for […] treatment in total. Urine protein analysis was conducted on Study Days −6, −4, −1, 1, 3, 6, 8, and 10. Following Study Day 10, mice serum BUN levels were analyzed as a measure of kidney function, and kidney histology was performed.

The test system of experiment [4] is BioMAP human primary cell-based co-culture systems. The experiment can be described thus: BioMAP Diversity PLUS Panel. The note with it: FIG. 8. From the text:
The BioMAP Diversity Plus Panel (FIG. 7) provides broad phenotypic profiles for pharmaceutically active agents. The panel uses 12 individual BioMAP human primary cell-based co-culture systems to predictively model drug effects on multiple tissues and disease states, providing 148 clinically relevant biomarker readouts. […] The LDLR gene is associated with the low-density lipoprotein receptor, which binds low-density lipoproteins that carry cholesterol in blood. […] Decreased MCP-1, sTNFα, eotaxin-3, ICAM-1, IL-la, and IL-8 and increased sPGE2 is associated with PRN1008's inflammation related activities. Decreased CD38, sIgG, sIL-17A, sIL-2, sIL-6, and M-CSF and increased CD69 are associated with PRN1008's immunomodulatory activities. Decreased MMP-9, uPA, and PAI-I is associated with PRN 1008's tissue remodeling activities. Decreased thrombomodulin (TM) and modulated tissue factor (TF) is associated with PRN1008's hemostasis-related activities. Thus, the BioMAP Diversity Plus Panel data for PRN1008 supports its anti-inflammatory and cytokine inhibition mechanisms.

[5] abbreviates: inflammation related activities.

`CC(C)(C)C=C(C#N)C(=O)N1CCC[C@@H](n2nc(-c3ccc(Oc4ccccc4)cc3F)c3c(N)ncnc32)C1` [Compound (IA), (R)-2-(3-(4-amino-3-(2-fluoro-4-phenoxyphenyl)-1H-pyrazolo[3,4-d]pyrimidin-1-yl)piperidine-1-carbonyl)-4,4-dimethylpent-2-enenitrile]: the “migratory activity of neutrophils (arrested cells that crawled)” value in the experiment with neutrophils [1] is recorded as “severely decreased”. The “neutrophil recruitment following sterile liver injury” value with neutrophils [2] is recorded as “abolish neutrophil recruitment”.

Turning to `CC(C)(C=C(C#N)C(=O)N1CCC[C@@H](n2nc(-c3ccc(Oc4ccccc4)cc3F)c3c(N)ncnc32)C1)N1CCN(C2COC2)CC1` [Compound (IB), 2-[(3R)-3-[4-amino-3-(2-fluoro-4-phenoxy-phenyl)pyrazolo[3,4-d]pyrimidin-1-yl]piperidine-1-carbonyl]-4-methyl-4-[4-(oxetan-3-yl)piperazin-1-yl]pent-2-enenitrile], the “kidney weight gain (a surrogate for kidney inflammation)” value in experiment [3] (10, 20 or 40 mg/kg QD or 20 mg/kg BID, FIG. 5) is listed as “dose dependent inhibition”. Also, in experiment [3] (10, 20 or 40 mg/kg QD or 20 mg/kg BID, Study Day -1 to 10, FIG. 2), the “serum blood urea nitrogen (BUN) levels” value is “dose dependent inhibition”. In addition, in experiment [3] (10, 20 or 40 mg/kg QD or 20 mg/kg BID, Study Day -1 to 10, FIG. 3), the severe proteinuria entry is “dose dependent inhibition”. In addition, the kidney pathology result in experiment [3] (FIG. 6) is recorded as “reduced kidney pathology”. In experiment [3] (FIG. 6, listed as PRN1008), the kidney pathology entry was “significantly reduced kidney pathology, superior to a steroid comparator (Dex)”. Also, in experiment [3] (urine protein analysis Study Days -6 to 10, FIG. 4), the “proteinuria during the study” value was “reduced proteinuria”. In experiment [4] (BioMAP Profile), the LDLR entry is “decreased”; the “anti-proliferative activity, B cells” value was “Anti-proliferative activities”; the “anti-proliferative activity, T cells” value is on record as “Anti-proliferative activities”; the “anti-proliferative activity, coronary artery smooth muscle cells” value was “Anti-proliferative activities”. For the same molecule, in experiment [4] (BioMAP Profile), the “anti-proliferative activity, endothelial cells” value was “Anti-proliferative activities” and the “anti-proliferative activity, fibroblasts” value is listed as “Anti-proliferative activities”. Besides, in experiment [4] (hemostasis-related activities), the “thrombomodulin (TM)” value is given as “Decreased” and the “tissue factor (TF)” value is on record as “modulated”. Further, in experiment [4] (immunomodulatory activities), the CD38 result was “Decreased”, the CD69 entry is listed as “increased”, the M-CSF entry is on record as “Decreased” and the sIL-2 entry was “Decreased”. Moreover, in experiment [4] (immunomodulatory activities), the sIL-6 result was “Decreased”, the sIL-17A entry is “Decreased” and the sIgG entry is given as “Decreased”. For the same molecule, in experiment [4] (setting [5]), the ICAM-1 entry is on record as “Decreased”, the IL-8 entry is reported as “Decreased”, the IL-la result is “Decreased” and the MCP-1 result is listed as “Decreased”. In addition, in experiment [4] (setting [5]), the eotaxin-3 entry is listed as “Decreased”, the sPGE2 entry is “increased” and the sTNFα entry was “Decreased”. Further, in experiment [4] (tissue remodeling activities), the MMP-9 entry is given as “Decreased”, the PAI-I result is listed as “Decreased” and the uPA result is “Decreased”.
